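Cultured in 96-well plates, cells were exposed to test compound for 48 hours across five concentrations. GI50 marks 50% less growth. TGI is the concentration that stops growth completely.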
Legend:
Experiment in all cases: NCI tumour cell line growth inhibition, 48 h
[1] = system: NCI-H522 lung
[2] = system: HCT-15 colon
[3] = system: HCT-116 colon
[4] = system: A498 renal
[5] = system: HS 578T breast
[6] = system: CCRF-CEM leukemia
[7] = system: UO-31 renal
[8] = system: SF-539 CNS
[9] = system: NCI-H226 lung
[10] = system: HOP-62 NSCLC

| SMILES | GI50 [1] | TGI [1] | GI50 [2] | TGI [2] | GI50 [3] | TGI [3] | GI50 [4] | TGI [4] | GI50 [5] | TGI [5] | GI50 [6] | TGI [6] | GI50 [7] | TGI [7] | GI50 [8] | TGI [8] | GI50 [9] | TGI [9] | GI50 [10] | TGI [10] |
| --- | --- | --- | --- | --- | --- | --- | --- | --- | --- | --- | --- | --- | --- | --- | --- | --- | --- | --- | --- | --- |
| COc1ccc(C(=O)c2cc(OC)c(OC)c(OC)c2)cc1/C=C/C(=O)c1ccc(O)cc1 | 2.69 µM | 15.8 µM | 2.15 µM | 7.42 µM | 1.58 µM | 3.33 µM | 3.14 µM | 15.1 µM | 18.3 µM | > 100 µM | 0.872 µM | > 100 µM | 3.2 µM | 16.2 µM | 2.72 µM | 7.9 µM | 2.5 µM | 7.78 µM | 21.1 µM | 53.4 µM |
| O=C(O)C1CCCN1Cc1c[nH]c2ccccc12 (stereo not drawn) |  | > 100 µM |  | > 100 µM |  | > 100 µM |  | > 100 µM |  | > 100 µM |  | > 100 µM |  | > 100 µM |  | > 100 µM |  | > 100 µM |  | > 100 µM |
| COc1c(O)cc2oc3cc(O)c(CC=C(C)C)c(O)c3c(=O)c2c1C/C=C(\C)CCC=C(C)C | 5.92 µM | 10.8 µM | 5.69 µM | 11.7 µM | 5.24 µM | 10.4 µM | 5.96 µM | 10.5 µM | 7.11 µM | 16.7 µM | 11.7 µM | 32.5 µM | 4.62 µM | 8.97 µM | 6.11 µM | 12 µM | 6.18 µM | 11.2 µM | 5.66 µM | 10.1 µM |
| O=C(CSc1nc2ccc([N+](=O)[O-])cc2[nH]1)Nc1cccc(C(F)(F)F)c1 | 1.55 µM | 9.05 µM | 2.74 µM | 12.7 µM | 2.69 µM | 12.1 µM | 0.963 µM | 3.52 µM | 2.45 µM | 10.7 µM | 2.58 µM | > 60.1 µM | 1.81 µM | 8.9 µM | 2.9 µM | 11.7 µM | 1.69 µM | 9.27 µM | 2.56 µM | 10.8 µM |
| O=C(Oc1cccc(Nc2ncnc3ccccc23)c1)c1ccccc1Cl | 7.23 µM | 26.8 µM | 18.9 µM | 46.6 µM | 14.7 µM | 33 µM | 23.8 µM | 49.4 µM | 19.1 µM | 48.1 µM | 19.3 µM | 65.1 µM | 36.4 µM | > 100 µM | 30.5 µM | 88.9 µM | 16.3 µM | 43.8 µM | 25.6 µM | 83.9 µM |
| O=C1C(Cl)=C(Oc2ccccc2)C(=O)c2ccccc21 | 1.51 µM | 2.96 µM | 12.1 µM | 31.5 µM | 1.82 µM | 3.41 µM | 9.24 µM | 22.6 µM | 2.62 µM | 13 µM | 2.23 µM | 8.32 µM | 1.23 µM | 3.23 µM | 5.96 µM | 14.2 µM | 12.1 µM | 28.7 µM | 8.55 µM | 22.2 µM |
| COc1ccc(/C=C\c2cc(OC)c(OC)c(OC)c2)cc1NC(=O)[C@@H](N)CO | < 0.01 µM | 0.0457 µM | 0.0165 µM | > 100 µM | 0.0176 µM | > 100 µM | < 0.01 µM | < 0.0158 µM | 0.0309 µM | > 100 µM | 0.0263 µM | > 100 µM | 0.0486 µM | > 69.7 µM | 0.0145 µM | 0.0649 µM | 0.0287 µM | > 100 µM | 0.0267 µM | > 100 µM |
| O=C1c2cccnc2-c2nc(-c3ccccn3)cc3c2c1nc1ccccc13 | 0.141 µM | 0.32 µM | < 0.0209 µM | 0.259 µM | 0.0885 µM | 0.332 µM | 0.481 µM | 1.5 µM | 0.705 µM | 4.65 µM | 0.0619 µM |  | 0.0539 µM | 0.219 µM | 0.0926 µM | 0.295 µM | 0.936 µM | 2.89 µM | 0.139 µM | 1.49 µM |
| COc1cccc2c(Nc3ccc(C(=O)NCCNCCO)cc3)cc(-c3ccccc3)nc12 | 20.3 µM | 53.8 µM | 12.2 µM | > 100 µM | 34.6 µM | > 100 µM | 62.5 µM | > 100 µM | 29.3 µM | > 100 µM | 20.2 µM | 48.3 µM | > 100 µM | > 100 µM | 40.9 µM | > 100 µM | 56.1 µM | > 100 µM | 35.4 µM | > 100 µM |
| Cn1cc(-c2nc(-c3c[nH]c4ncccc34)cs2)c2cc(Cl)ccc21 | 5.56 µM | > 100 µM | 2.34 µM | > 100 µM | 4.34 µM | > 100 µM | 2.61 µM | 12.9 µM | 4.18 µM | 32.7 µM | 5.51 µM | > 100 µM | 2.81 µM | 75.5 µM | 12.1 µM | > 100 µM | 11.9 µM | > 100 µM | 25.3 µM | > 100 µM |
| O=C(Nc1ncc([N+](=O)[O-])s1)c1cccc([N+](=O)[O-])c1 | 3.18 µM | 65.9 µM | 6.11 µM | > 100 µM | 2.72 µM | 16.5 µM | 2.1 µM | 24.5 µM | 1.72 µM | > 28.4 µM | 2.39 µM | > 29.2 µM | 2.55 µM | 9.87 µM | 3.23 µM | 37.1 µM | 4.1 µM | > 60.1 µM | 3.75 µM | > 40.9 µM |
| CC1=C(C(=O)Nc2ccc(F)c(Cl)c2)C(c2cccc(O)c2)NC(=S)N1 (stereo not drawn) | 12.4 µM | > 50 µM | 47.8 µM | > 50 µM | 34.2 µM | > 50 µM | 9.45 µM | 33.5 µM | 13.7 µM | 47 µM | > 50 µM | > 50 µM | > 50 µM | > 50 µM |  |  |  |  | > 50 µM | > 50 µM |
| COc1cc(/C=C2\CC(C)CC3C2=NN(c2ccccc2)C3c2cc(OC)c(OC)c(OC)c2)cc(OC)c1OC (stereo not drawn) | 10.2 µM | 59.3 µM | 11.2 µM | 25.6 µM | 6.21 µM | 33.1 µM | 13.5 µM | 42.5 µM | 18.4 µM | 81.2 µM | 7.75 µM | > 100 µM | 22 µM | > 100 µM | 16.6 µM | 36.2 µM | 37.4 µM | > 100 µM |  |  |
